From patent publication US20090117083A1, “IMMUNOMODULATORY ALKALOIDS” (M N L PHARMA LIMITED, priority 2004, published 2009)

Experiments:
α-D-glucosidase = assay: Glycosidase inhibition: α-D-glucosidase, Bacillus; format: biochemical, Bacillus stearothermophilus; conditions: 1 mg/ml
Summary of the method: (§1)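 Screening used 3.57 mM (final) p-nitrophenyl substrates in McIlvaine buffer at each enzyme's pH optimum, 20° C, with endpoint reading at 405 nm.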

β-D-glucosidase = assay: Glycosidase inhibition: β-D-glucosidase, almond; format: biochemical, Almonds (Prunus sp.)
Summary of the method: as §1

α-D-galactosidase = molecular target: T1, α-D-galactosidase (Coffea arabica, UniProt Q42656); assay: Glycosidase inhibition: α-D-galactosidase; format: biochemical, Green coffee beans (Coffea sp.); conditions: read-out: % inhibition, galactosidase
T1 construct: purchased Sigma
Summary of the method: as §1

Naringinase = assay: Glycosidase inhibition: Naringinase; format: biochemical, Penecillium decumbens; conditions: 1 mg/ml
Summary of the method: as §1

[1] = system: N-acetyl-β-D-glucosaminidase; assay: Glycosidase inhibition: N-acetyl-β-D-glucosaminidase; format: biochemical, Bovine; conditions: 1 mg/ml
Summary of the method: as §1

[2] = molecular target: T2, rabbit small intestine sucrase (Oryctolagus cuniculus, UniProt P07768); assay: Inhibition of rabbit small intestine sucrase; format: biochemical; conditions: 700 μM
T2 construct: from tissue; host or cells: rabbit small intestine

[3] = system: Na^+-dependent D-glucose uptake; assay: Na+-dependent D-glucose uptake into intestinal brush border membrane vesicles; format: biochemical, ovine
B16G/F10 melanoma cells = assay: B16/F10 melanoma lung colonies in mice; format: in vivo, C57BL/6 mice; conditions: for Colony Count: Day 21, mean ± s.e.m.; for % Reduction: versus vehicle
Description: There were 5 treatment groups in the study, with 6 mice arbitrarily allocated to each group. The treatment groups were as follows:
The dose volume was the daily intake for all animals. Test substances were administered to mice in Groups 2, 3, 4 and 5, as solutions in sterile water for 41 h 32 min prior to tumour cell injection (Day 0 is the day of tumour cell injection).
Mice were injected intravenously, via a tail vein, with 0.1 ml of a suspension of B16G/F10 melanoma cells (approximately 1×10^5 cells/mouse) on Day 0.
All dosing solutions were prepared on the first day of dosing (Day −2) and were kept at room temperature.
Mice: Female C57BL/6 mice were supplied and delivered by Charles River UK Limited. The animals were approximately 6-8 weeks of age on arrival. The animals were acclimatized for 29 days prior to the start of the study, and the body weights at the start of dosing were in the range 18-23 g. During the study, the animals were housed in groups of up to 6 in pediatric filter-topped cages with sawdust bedding (autoclaved for sterility). The room and cages were cleaned at regular intervals each week to maintain hygiene. The mice were fed an expanded rodent diet of RM1(E) SQC (batch number 3822; Special Diets Services, Witham, UK) ad libitum and allowed access to sterilized water (N.V. Nutricia, Zoetermeer, The Netherlands). For Groups 2, 3, 4 and 5, the drinking water also contained the appropriate level of test substance for the duration of the dosing period. […] During the acclimatization and study period the temperature range in the rooms was 18-22° C. and the humidity range was 44-79%.
Tumour challenge: B18F10 murine tumour cells (Shrayer D, Bogaars H. Hearing V. J. Maizel A. & Wanebo H. Further characterization of a clinically relevant model of melanoma metastasis and an effective vaccine. Cancer Immunology, Immunotherapy 1995: 40; 277-282) were harvested from sub-confluent cultures growing in vitro, using minimum trypsination. They were washed in sterile phosphate buffered saline (PBS) and the number of viable cells determined. Cells were resuspended in sterile PBS at a concentration of […]. The mice were intravenously injected, via a tail vein, with 0.1 ml of cell suspension (i.e. approximately 1×10^5 cells/mouse) on Day 0. The mice were examined daily for signs of laboured breathing or distress due to extensive metastatic disease. Mice were exposed to the appropriate test substance for 41 h 32 min prior to tumour cell injection (from Day −2 to Day 0). Following tumour cell implant, the test substances were removed, and animals in all groups received drinking water alone for the remainder of the study.
Sampling and analysis: The animals were terminated on Day 21 (21 days after injection of the tumour cells). Blood samples were taken from 3 mice from each group on the day of termination. Animals were anaesthetized with carbon dioxide and blood samples of maximal volume taken by cardiac puncture and collected in plain tubes. Samples were left to clot at room temperature for a minimum of 1 h prior to serum removal, Serum samples were stored at approximately −70° C. prior to analysis. Immediately after performing the bleeds, the spleens were removed from the 3 selected mice. The spleens from these mice were pooled in a petri dish with approximately 3-5 ml of RPMI 1640 tissue culture medium (batch number 3092202; Invitrogen, Paisley, UK) containing 0.52% penicillin/streptomycin (Pen/Strep; batch number 44K2412; Sigma Aldrich, Poole, UK) prior to splenocyte isolation. The spleens from each group were placed in a glass homogeniser with an additional 10-15 ml of medium and homogenised until opaque. The suspension was then placed in a 50 ml centrifuge tube. On occasions when there was significant cell debris, this was allowed to settle before removing the suspension and placing in a fresh tube. The homogenate was then centrifuged at approximately 200×‘g’ for 5 min at approximately 4° C.

T1 sequence (Q42656 16-378): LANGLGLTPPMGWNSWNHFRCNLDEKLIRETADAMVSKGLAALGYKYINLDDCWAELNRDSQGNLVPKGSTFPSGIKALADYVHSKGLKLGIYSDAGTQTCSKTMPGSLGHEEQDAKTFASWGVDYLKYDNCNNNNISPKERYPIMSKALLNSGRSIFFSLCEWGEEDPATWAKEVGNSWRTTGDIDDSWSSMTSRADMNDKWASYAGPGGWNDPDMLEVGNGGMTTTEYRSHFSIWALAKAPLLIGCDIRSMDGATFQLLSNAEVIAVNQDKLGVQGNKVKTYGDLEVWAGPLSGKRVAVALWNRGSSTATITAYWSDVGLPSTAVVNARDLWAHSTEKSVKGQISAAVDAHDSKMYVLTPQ
T2 sequence (P07768 1008-1827 limits assumed): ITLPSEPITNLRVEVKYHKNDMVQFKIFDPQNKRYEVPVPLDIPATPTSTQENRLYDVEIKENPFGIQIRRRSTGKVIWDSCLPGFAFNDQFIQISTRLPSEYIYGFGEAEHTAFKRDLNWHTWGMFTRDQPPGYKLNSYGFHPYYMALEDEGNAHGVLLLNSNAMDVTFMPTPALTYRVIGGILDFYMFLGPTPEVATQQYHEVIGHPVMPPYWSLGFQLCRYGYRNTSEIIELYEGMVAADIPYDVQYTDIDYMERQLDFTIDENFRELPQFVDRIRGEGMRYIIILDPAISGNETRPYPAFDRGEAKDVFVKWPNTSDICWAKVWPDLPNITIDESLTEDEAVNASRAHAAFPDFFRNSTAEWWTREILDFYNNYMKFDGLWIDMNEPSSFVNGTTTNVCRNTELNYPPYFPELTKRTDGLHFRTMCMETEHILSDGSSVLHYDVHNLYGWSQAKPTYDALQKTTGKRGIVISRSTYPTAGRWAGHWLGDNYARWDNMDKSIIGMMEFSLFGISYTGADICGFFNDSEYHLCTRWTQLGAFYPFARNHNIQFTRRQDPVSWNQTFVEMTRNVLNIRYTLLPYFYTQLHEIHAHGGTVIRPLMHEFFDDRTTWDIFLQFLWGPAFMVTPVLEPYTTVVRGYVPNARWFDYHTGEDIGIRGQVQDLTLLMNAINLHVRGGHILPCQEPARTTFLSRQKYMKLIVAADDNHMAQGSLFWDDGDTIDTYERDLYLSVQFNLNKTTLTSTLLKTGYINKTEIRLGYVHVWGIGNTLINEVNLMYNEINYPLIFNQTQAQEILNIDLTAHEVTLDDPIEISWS
T2 sequence (P07768 2-1007 partner limits assumed): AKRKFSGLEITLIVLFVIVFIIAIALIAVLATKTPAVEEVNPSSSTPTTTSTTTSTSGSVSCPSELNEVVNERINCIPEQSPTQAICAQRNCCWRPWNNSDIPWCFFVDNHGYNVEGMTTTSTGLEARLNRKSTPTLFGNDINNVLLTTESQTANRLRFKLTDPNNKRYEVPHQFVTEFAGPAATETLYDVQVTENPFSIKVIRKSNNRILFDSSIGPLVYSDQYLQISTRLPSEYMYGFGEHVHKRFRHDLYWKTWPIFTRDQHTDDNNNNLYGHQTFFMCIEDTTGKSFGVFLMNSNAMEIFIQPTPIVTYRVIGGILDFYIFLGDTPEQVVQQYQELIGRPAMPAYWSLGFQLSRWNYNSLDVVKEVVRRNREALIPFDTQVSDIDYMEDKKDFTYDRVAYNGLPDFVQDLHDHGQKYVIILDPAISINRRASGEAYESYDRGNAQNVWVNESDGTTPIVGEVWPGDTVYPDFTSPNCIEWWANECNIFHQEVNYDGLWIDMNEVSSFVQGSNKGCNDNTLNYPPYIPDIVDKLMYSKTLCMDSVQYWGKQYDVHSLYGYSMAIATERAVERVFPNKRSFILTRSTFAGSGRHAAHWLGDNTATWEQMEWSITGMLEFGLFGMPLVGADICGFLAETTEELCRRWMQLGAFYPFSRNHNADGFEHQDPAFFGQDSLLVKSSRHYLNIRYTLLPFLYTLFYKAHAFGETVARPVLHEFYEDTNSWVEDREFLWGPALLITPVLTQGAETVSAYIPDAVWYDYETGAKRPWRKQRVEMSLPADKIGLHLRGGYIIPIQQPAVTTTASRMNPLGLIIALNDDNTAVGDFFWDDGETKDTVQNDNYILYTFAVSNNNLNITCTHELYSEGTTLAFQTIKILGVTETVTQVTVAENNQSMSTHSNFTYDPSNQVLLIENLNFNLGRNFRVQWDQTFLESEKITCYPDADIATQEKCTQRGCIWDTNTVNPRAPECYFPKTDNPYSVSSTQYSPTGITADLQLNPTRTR

## OC[C@@H]1[C@@H](O)[C@H](O)[C@H]2[C@H](O)[C@@H](O)CN21 [casuarine (8)]
α-D-glucosidase
  % inhibition, gluc (Bacillus): 86%
β-D-glucosidase; 800 μM
  inhibition of almond β-D-glucosidase: not being inhibitory
β-D-glucosidase; 1 mg/ml
  % inhibition, glucosidase: 0%
α-D-galactosidase
  inhibition at 1000 µg/mL: 4%
Naringinase
  % inhibition, Naringinase: −2%
[1]
  % inhibition, N-acetyl-β-gluc: 14%
[2]
  inhibition of rabbit small intestine sucrase: inhibited
[3]; initial rate, competition with labelled D-glucose, control 240
  Glucose uptake: 265 pmol/s/mg
[3]; versus control
  glucose transport, effect: slightly stimulated
B16G/F10 melanoma cells; 0.03 μg/ml in drinking water before tumour cell injection
  Colony Count: 17.00 ± 6.97
B16G/F10 melanoma cells; 0.03 μg/ml in drinking water
  % Reduction: 76%
B16G/F10 melanoma cells; 3 μg/ml in drinking water before tumour cell injection
  Colony Count: 35.40 ± 7.47
B16G/F10 melanoma cells; 3 μg/ml in drinking water
  % Reduction: 49%
B16G/F10 melanoma cells; 0.3 mg/ml in drinking water before tumour cell injection
  Colony Count: 38.50 ± 11.49
B16G/F10 melanoma cells; 0.3 mg/ml in drinking water
  % Reduction: 45%
